Measured values: PubChem BioAssay (NCI)
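All cell lines were grown in 96-well plates and treated with compound for 48 hours. The concentration for 50% growth inhibition is given as GI50. Definition used: TGI = concentration required for complete inhibition of growth.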

What was measured:
Assay in all cases: NCI tumour cell line growth inhibition, 48 h
SW-620 colon = tested on: SW-620 colon
TK-10 renal = tested on: TK-10 renal
EKVX NSCLC = tested on: EKVX NSCLC
786-0 renal = tested on: 786-0 renal
UACC-62 melanoma = tested on: UACC-62 melanoma
HT29 colon = tested on: HT29 colon
NCI-H460 lung = tested on: NCI-H460 lung
OVCAR-4 ovarian = tested on: OVCAR-4 ovarian
SF-539 CNS = tested on: SF-539 CNS
SK-OV-3 ovarian = tested on: SK-OV-3 ovarian
HL-60(TB) leukemia = tested on: HL-60(TB) leukemia
PC-3 prostate = tested on: PC-3 prostate
SNB-75 CNS = tested on: SNB-75 CNS
K-562 leukemia = tested on: K-562 leukemia
SK-MEL-2 melanoma = tested on: SK-MEL-2 melanoma
HCT-116 colon = tested on: HCT-116 colon
RPMI-8226 leukemia = tested on: RPMI-8226 leukemia
HS 578T breast = tested on: HS 578T breast
OVCAR-3 ovarian = tested on: OVCAR-3 ovarian
MDA-MB-231 breast = tested on: MDA-MB-231 breast
IGROV1 ovarian = tested on: IGROV1 ovarian
COLO 205 colon = tested on: COLO 205 colon
MCF7 breast = tested on: MCF7 breast
SN12C renal = tested on: SN12C renal
A549 NSCLC = tested on: A549 NSCLC
SK-MEL-28 melanoma = tested on: SK-MEL-28 melanoma
RXF 393 renal = tested on: RXF 393 renal
NCI-H522 lung = tested on: NCI-H522 lung
U251 CNS = tested on: U251 CNS
SF-295 CNS = tested on: SF-295 CNS
HCC-2998 colon = tested on: HCC-2998 colon
HCT-15 colon = tested on: HCT-15 colon
MOLT-4 leukemia = tested on: MOLT-4 leukemia
SF-268 CNS = tested on: SF-268 CNS
UO-31 renal = tested on: UO-31 renal
NCI/ADR-RES ovarian = tested on: NCI/ADR-RES ovarian
A498 renal = tested on: A498 renal
MDA-MB-435 = tested on: MDA-MB-435
OVCAR-5 ovarian = tested on: OVCAR-5 ovarian
CAKI-1 renal = tested on: CAKI-1 renal
OVCAR-8 ovarian = tested on: OVCAR-8 ovarian
BT-549 breast = tested on: BT-549 breast
SK-MEL-5 melanoma = tested on: SK-MEL-5 melanoma
DU-145 prostate = tested on: DU-145 prostate
SNB-19 CNS = tested on: SNB-19 CNS
M14 melanoma = tested on: M14 melanoma
LOX IMVI melanoma = tested on: LOX IMVI melanoma
HOP-62 NSCLC = tested on: HOP-62 NSCLC
T-47D breast = tested on: T-47D breast
KM12 colon = tested on: KM12 colon
MALME-3M melanoma = tested on: MALME-3M melanoma
ACHN renal = tested on: ACHN renal

CC(C)(C)c1ccc(Oc2nccc(-c3c(-c4ccc(F)cc4)ncn3C3CCNCC3)n2)cc1
GI50 (SW-620 colon): 3.96 µM
TGI (SW-620 colon): 7.82 µM
GI50 (TK-10 renal): 4.4 µM
TGI (TK-10 renal): 8.04 µM
GI50 (EKVX NSCLC): 3.6 µM
TGI (EKVX NSCLC): 7.36 µM
GI50 (786-0 renal): 4.22 µM
TGI (786-0 renal): 8.12 µM
GI50 (UACC-62 melanoma): 4.25 µM
TGI (UACC-62 melanoma): 7.77 µM
GI50 (HT29 colon): 1.03 µM
TGI (HT29 colon): 4.17 µM
GI50 (NCI-H460 lung): 3.91 µM
TGI (NCI-H460 lung): 8.21 µM
GI50 (OVCAR-4 ovarian): 3.61 µM
TGI (OVCAR-4 ovarian): 7.32 µM
GI50 (SF-539 CNS): 4.38 µM
TGI (SF-539 CNS): 8.03 µM
GI50 (SK-OV-3 ovarian): 4.35 µM
TGI (SK-OV-3 ovarian): 7.8 µM
GI50 (HL-60(TB) leukemia): 4.64 µM
TGI (HL-60(TB) leukemia): 9.1 µM
GI50 (PC-3 prostate): 2.88 µM
TGI (PC-3 prostate): 6.19 µM
GI50 (SNB-75 CNS): 2.89 µM
TGI (SNB-75 CNS): 6.15 µM
GI50 (K-562 leukemia): 0.849 µM
TGI (K-562 leukemia): 4.7 µM
GI50 (SK-MEL-2 melanoma): 5.21 µM
TGI (SK-MEL-2 melanoma): 9.1 µM
GI50 (HCT-116 colon): 3.58 µM
TGI (HCT-116 colon): 7.07 µM
GI50 (RPMI-8226 leukemia): 3.56 µM
TGI (RPMI-8226 leukemia): 7.97 µM
GI50 (HS 578T breast): 5.1 µM
TGI (HS 578T breast): 13.1 µM
GI50 (OVCAR-3 ovarian): 4.25 µM
TGI (OVCAR-3 ovarian): 7.77 µM
GI50 (MDA-MB-231 breast): 3.87 µM
TGI (MDA-MB-231 breast): 7.39 µM
GI50 (IGROV1 ovarian): 3.86 µM
TGI (IGROV1 ovarian): 8.01 µM
GI50 (COLO 205 colon): 3.69 µM
TGI (COLO 205 colon): 7.46 µM
GI50 (MCF7 breast): 3.86 µM
TGI (MCF7 breast): 7.77 µM
GI50 (SN12C renal): 3.65 µM
TGI (SN12C renal): 7.06 µM
GI50 (A549 NSCLC): 3.55 µM
TGI (A549 NSCLC): 6.9 µM
GI50 (SK-MEL-28 melanoma): 4.29 µM
TGI (SK-MEL-28 melanoma): 8.06 µM
GI50 (RXF 393 renal): 3.22 µM
TGI (RXF 393 renal): 7.07 µM
GI50 (NCI-H522 lung): 4.69 µM
TGI (NCI-H522 lung): 8.58 µM
GI50 (U251 CNS): 3.23 µM
TGI (U251 CNS): 6.49 µM
GI50 (SF-295 CNS): 4.65 µM
TGI (SF-295 CNS): 8.68 µM
GI50 (HCC-2998 colon): 1.38 µM
TGI (HCC-2998 colon): 4.98 µM
GI50 (HCT-15 colon): 3.23 µM
TGI (HCT-15 colon): 6.68 µM
GI50 (MOLT-4 leukemia): 2.93 µM
TGI (MOLT-4 leukemia): 7.13 µM
GI50 (SF-268 CNS): 3.34 µM
TGI (SF-268 CNS): 7.07 µM
GI50 (UO-31 renal): 2.61 µM
TGI (UO-31 renal): 6.61 µM
GI50 (NCI/ADR-RES ovarian): 3.39 µM
TGI (NCI/ADR-RES ovarian): 7 µM
GI50 (A498 renal): 3.89 µM
TGI (A498 renal): 7.49 µM
GI50 (MDA-MB-435): 3.53 µM
TGI (MDA-MB-435): 7.04 µM
GI50 (OVCAR-5 ovarian): 4.26 µM
TGI (OVCAR-5 ovarian): 7.76 µM
GI50 (CAKI-1 renal): 3.96 µM
TGI (CAKI-1 renal): 7.64 µM
GI50 (OVCAR-8 ovarian): 3.72 µM
TGI (OVCAR-8 ovarian): 7.36 µM
GI50 (BT-549 breast): 4.1 µM
TGI (BT-549 breast): 7.6 µM
GI50 (SK-MEL-5 melanoma): 3.68 µM
TGI (SK-MEL-5 melanoma): 7.03 µM
GI50 (DU-145 prostate): 3.71 µM
TGI (DU-145 prostate): 7.06 µM
GI50 (SNB-19 CNS): 3.73 µM
TGI (SNB-19 CNS): 7.42 µM
GI50 (M14 melanoma): 4.5 µM
TGI (M14 melanoma): 8.46 µM
GI50 (LOX IMVI melanoma): 3.43 µM
TGI (LOX IMVI melanoma): 7.49 µM
GI50 (HOP-62 NSCLC): 4.25 µM
TGI (HOP-62 NSCLC): 7.88 µM
GI50 (T-47D breast): 4.46 µM
TGI (T-47D breast): 8.56 µM
GI50 (KM12 colon): 3.95 µM
TGI (KM12 colon): 7.61 µM
GI50 (MALME-3M melanoma): 4.94 µM
TGI (MALME-3M melanoma): 9.38 µM
GI50 (ACHN renal): 3.49 µM
TGI (ACHN renal): 6.78 µM
